Reference: ChEMBL document CHEMBL1201862, “PubChem BioAssay data set” (2004)
Active and inactive are the calls of the source.

Experiments:
[1] = molecular target: T1, Beta-lactamase (Pseudomonas aeruginosa, UniProt Q79MP6); experiment: inhibition of IMP-1 beta-lactamase activity – biochemical, epi-absorbance, selectivity assay for VIM-2 inhibitor project, dose response (AID 1920)
[2] = molecular target: Beta-lactamase (Salmonella choleraesuis (strain SC-B67), UniProt Q5J463); experiment: Epi-absorbance-based counterscreen for selective VIM-2 inhibitors: dose response biochemical high throughput screening assay to identify inhibitors of TEM-1 serine-beta-lactamase.
Chain of Beta-lactamase (Salmonella choleraesuis (strain SC-B67), UniProt Q5J463) (Q5J463 whole entry): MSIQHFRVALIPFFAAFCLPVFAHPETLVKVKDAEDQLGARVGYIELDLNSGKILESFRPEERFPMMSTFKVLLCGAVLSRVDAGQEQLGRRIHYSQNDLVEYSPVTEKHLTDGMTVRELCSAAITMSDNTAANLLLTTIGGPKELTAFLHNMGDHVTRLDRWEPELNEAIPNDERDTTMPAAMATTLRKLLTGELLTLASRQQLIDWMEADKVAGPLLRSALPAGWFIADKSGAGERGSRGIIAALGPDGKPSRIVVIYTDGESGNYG

[3] = molecular target: T1, Beta-lactamase; experiment: […] counterscreen for selective VIM-2 inhibitors: dose response biochemical high throughput screening assay to identify inhibitors of IMP-1 metallo-beta-lactamase.
[4] = viability of uninfected HEp-2 cells – cell-based, HTS, cytotoxicity control for RSV inhibitor project, dose response (AID 2410); type: functional; settings: human respiratory syncytial virus
[5] = molecular target: T2, Small ubiquitin-related modifier 1 (Homo sapiens, UniProt P63165); experiment: SUMO1 protein-protein binding blockers, potency – biochemical, FRET, dose response (AID 624383); type: functional; settings: read-out: IC50_Mean
T2 sequence (P63165 whole entry): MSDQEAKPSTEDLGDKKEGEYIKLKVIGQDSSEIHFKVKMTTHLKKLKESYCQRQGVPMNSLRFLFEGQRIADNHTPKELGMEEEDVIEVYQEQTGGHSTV

[6] = molecular target: T2, Small ubiquitin-related modifier 1; experiment: SUMO1 protein interaction blockers, potency – biochemical, fluorescence polarization, uHTS hits, dose response (AID 624382); type: functional; settings: read-out: IC50_Mean
[7] = molecular target: T3, Fructose-bisphosphate aldolase (Mycobacterium tuberculosis, UniProt P9WQA3); experiment: Fluorescence-based biochemical high throughput dose response assay for inhibitors of the fructose-bisphosphate aldolase (FBA) of M. tuberculosis.; type: functional
T3 sequence (P9WQA3 whole entry): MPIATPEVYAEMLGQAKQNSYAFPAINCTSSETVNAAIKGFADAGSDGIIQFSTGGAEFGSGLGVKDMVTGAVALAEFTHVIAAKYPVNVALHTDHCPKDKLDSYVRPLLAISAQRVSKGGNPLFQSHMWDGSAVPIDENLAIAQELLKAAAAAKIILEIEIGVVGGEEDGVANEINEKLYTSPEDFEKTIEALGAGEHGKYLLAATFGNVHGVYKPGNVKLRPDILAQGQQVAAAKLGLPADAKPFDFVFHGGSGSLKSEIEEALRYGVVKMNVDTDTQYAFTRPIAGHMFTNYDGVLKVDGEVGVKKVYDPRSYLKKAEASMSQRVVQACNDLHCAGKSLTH

[8] = molecular target: T4, Heat shock factor protein 1 (Mus musculus, UniProt P38532); experiment: decrease of HSF1-responsive luciferase luminescence – cell-based, NIH3T3, dose retest, confirmation (AID 2382); type: functional;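 also: NIH3T3 fibroblasts with HSF1-driven luciferase reporter stressed by proteasome inhibitor MG132; luminescence from HSF1-driven luciferase expression after 8 hours of MG132 stress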
T4 sequence (P38532 whole entry): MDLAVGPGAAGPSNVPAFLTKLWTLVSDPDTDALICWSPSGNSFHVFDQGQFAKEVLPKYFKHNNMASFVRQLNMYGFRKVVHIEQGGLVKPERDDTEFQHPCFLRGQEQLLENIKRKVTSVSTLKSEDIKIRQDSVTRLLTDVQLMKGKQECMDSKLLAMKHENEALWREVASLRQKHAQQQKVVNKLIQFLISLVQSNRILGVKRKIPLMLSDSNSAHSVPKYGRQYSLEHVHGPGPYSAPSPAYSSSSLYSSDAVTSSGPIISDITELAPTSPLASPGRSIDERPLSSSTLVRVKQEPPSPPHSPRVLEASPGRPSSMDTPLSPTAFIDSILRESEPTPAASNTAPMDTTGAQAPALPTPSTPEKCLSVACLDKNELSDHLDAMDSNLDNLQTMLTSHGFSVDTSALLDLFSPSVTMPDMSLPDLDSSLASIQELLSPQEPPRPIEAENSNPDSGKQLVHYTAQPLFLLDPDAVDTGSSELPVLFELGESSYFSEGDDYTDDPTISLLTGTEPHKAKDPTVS

[9] = molecular target: Beta-galactosidase (Escherichia coli, UniProt Q8VNN2); experiment: Dose response counterscreen for EBI2 assay utilizing the enzyme, b-galactosidase.; type: functional
Chain of Beta-galactosidase (Q8VNN2 whole entry): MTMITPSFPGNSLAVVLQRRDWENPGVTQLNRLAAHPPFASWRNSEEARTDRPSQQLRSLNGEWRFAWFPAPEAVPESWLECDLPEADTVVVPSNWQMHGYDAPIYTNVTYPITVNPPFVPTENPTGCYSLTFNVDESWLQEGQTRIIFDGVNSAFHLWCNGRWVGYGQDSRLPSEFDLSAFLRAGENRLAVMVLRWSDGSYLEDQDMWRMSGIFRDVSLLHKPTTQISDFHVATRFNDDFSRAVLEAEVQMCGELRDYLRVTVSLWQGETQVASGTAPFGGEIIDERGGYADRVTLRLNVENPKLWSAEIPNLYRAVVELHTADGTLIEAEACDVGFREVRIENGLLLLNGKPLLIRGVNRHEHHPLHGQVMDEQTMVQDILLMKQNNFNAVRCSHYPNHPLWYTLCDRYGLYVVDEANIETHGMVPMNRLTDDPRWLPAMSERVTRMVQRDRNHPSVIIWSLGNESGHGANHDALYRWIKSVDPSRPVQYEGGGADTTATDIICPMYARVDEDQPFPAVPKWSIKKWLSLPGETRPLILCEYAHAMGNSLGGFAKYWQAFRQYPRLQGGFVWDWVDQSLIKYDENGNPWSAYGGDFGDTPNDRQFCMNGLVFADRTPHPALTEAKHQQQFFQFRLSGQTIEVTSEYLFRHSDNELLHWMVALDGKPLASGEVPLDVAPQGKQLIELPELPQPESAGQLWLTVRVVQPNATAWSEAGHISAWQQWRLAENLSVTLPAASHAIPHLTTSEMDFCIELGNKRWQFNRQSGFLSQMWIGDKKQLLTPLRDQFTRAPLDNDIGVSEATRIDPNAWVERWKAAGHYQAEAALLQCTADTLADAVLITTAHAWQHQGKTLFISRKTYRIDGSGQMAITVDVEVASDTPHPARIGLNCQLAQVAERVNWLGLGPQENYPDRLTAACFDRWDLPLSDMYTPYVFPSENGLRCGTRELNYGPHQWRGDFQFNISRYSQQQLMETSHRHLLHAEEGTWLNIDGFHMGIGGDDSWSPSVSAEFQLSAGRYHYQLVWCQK

[10] = Counterscreen for inhibitors of Trypanosoma brucei methionyl tRNA synthetase (MetRS): Luminescence-based cell-based high throughput dose response assay to identify compounds that are cytotoxic to Jurkat human T lymphocyte cells.; type: functional
[11] = molecular target: T5, Methionyl-tRNA synthetase, putative (Trypanosoma brucei brucei, UniProt Q38C91); type: functional, Trypanosoma brucei brucei strain 927/4 GUTat10.1
T5 sequence (Q38C91 whole entry): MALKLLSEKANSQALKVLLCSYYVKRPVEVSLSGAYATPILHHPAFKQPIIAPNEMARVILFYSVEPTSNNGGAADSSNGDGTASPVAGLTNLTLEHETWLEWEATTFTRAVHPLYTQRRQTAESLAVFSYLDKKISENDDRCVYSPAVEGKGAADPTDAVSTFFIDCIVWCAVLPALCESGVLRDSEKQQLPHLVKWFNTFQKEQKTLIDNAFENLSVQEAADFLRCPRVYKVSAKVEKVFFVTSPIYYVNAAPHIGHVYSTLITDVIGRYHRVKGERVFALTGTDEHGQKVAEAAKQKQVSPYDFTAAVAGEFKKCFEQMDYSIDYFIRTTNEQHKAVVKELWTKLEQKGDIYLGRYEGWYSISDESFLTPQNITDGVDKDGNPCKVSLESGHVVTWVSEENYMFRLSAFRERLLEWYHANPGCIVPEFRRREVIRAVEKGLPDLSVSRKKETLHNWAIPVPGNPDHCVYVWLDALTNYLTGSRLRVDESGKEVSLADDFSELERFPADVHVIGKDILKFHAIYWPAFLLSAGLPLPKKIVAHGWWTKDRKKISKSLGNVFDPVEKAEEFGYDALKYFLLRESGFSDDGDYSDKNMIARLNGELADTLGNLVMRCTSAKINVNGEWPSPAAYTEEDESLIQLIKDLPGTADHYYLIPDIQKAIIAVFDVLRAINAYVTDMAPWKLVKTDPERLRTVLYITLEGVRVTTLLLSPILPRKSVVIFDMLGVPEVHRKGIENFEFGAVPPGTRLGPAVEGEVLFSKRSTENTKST

[12] = molecular target: T5, Methionyl-tRNA synthetase, putative; type: functional, Trypanosoma brucei brucei strain 927/4 GUTat10.1; remark: listed apart in the source
[13] = molecular target: T6, High affinity choline transporter 1 (Homo sapiens, UniProt Q9GZV3); experiment: human choline transporter blockers, potency – cell-based, 5-point CRC, membrane potential dye, dose response (AID 504840); type: functional
T6 sequence (Q9GZV3 whole entry): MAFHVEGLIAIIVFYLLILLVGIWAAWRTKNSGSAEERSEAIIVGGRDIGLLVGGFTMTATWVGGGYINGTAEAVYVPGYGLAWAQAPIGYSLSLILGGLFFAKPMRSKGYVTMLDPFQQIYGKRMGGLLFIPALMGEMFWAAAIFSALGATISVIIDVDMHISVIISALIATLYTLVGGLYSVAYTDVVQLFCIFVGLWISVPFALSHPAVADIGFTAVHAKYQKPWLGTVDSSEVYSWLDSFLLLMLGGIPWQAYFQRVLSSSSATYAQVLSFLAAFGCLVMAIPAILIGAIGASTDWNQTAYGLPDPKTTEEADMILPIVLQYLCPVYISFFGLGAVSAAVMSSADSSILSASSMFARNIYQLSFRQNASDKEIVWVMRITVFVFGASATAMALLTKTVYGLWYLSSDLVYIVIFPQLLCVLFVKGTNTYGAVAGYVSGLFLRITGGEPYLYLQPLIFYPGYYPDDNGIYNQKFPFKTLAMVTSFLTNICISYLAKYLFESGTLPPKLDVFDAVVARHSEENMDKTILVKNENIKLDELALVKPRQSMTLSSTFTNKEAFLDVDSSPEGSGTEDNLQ

[14] = molecular target: Large T antigen (Simian virus 40, UniProt P03070); type: functional, Betapolyomavirus macacae;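 also: Confirmatory-stage PubChem screen for compounds that inhibit SV40 T antigen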
Chain of Large T antigen (P03070 whole entry): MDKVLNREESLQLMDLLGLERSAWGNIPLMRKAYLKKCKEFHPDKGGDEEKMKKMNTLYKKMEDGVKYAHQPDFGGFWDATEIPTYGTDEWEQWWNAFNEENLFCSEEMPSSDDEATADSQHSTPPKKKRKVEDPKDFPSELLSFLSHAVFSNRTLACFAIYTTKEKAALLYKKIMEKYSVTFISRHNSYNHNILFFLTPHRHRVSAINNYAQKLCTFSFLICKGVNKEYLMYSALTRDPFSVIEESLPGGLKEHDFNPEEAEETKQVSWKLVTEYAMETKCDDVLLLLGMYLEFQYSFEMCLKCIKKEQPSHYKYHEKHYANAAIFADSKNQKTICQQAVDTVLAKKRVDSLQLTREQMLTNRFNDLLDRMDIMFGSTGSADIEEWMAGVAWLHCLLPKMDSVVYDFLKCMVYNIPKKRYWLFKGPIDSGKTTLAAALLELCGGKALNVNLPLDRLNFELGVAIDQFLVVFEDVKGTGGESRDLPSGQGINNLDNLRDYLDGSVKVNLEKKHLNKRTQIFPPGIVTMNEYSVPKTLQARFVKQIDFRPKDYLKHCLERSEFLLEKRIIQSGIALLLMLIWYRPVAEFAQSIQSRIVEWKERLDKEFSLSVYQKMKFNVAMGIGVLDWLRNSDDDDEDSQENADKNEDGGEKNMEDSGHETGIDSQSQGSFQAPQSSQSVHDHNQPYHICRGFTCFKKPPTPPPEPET

[15] = molecular target: T7, Rac GTPase-activating protein 1 (Homo sapiens, UniProt Q9H0H5); experiment: blockers of MgcRacGAP-driven Rac1 GTP hydrolysis – biochemical, ADP Hunter fluorescence, primary and confirmatory, confirmation (AID 624330); type: functional
T7 sequence (Q9H0H5 whole entry): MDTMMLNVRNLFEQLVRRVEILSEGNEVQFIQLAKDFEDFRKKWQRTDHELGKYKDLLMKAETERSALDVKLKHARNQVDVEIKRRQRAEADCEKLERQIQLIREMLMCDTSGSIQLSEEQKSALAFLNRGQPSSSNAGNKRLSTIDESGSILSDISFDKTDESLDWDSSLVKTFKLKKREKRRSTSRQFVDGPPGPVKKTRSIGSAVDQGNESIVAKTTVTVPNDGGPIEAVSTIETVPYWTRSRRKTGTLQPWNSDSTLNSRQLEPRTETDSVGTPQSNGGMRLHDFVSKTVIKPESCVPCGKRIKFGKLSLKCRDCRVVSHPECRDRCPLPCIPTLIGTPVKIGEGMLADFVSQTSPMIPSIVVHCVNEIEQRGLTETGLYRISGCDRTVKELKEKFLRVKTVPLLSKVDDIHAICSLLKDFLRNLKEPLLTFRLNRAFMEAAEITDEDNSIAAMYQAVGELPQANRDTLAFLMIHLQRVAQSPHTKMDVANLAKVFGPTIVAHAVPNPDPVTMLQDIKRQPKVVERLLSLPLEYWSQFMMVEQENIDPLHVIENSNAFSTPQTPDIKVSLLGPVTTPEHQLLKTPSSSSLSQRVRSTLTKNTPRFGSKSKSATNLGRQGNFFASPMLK

[16] = viability loss in HeLa cells – cytotoxicity control for MgcRacGAP inhibitor project, dose response (AID 624300); type: functional
[17] = tested on: Vero; experiment: cells; type: functional; settings: Chlorocebus sabaeus
[18] = intracellular Trypanosoma cruzi inhibitors in host cells – cell-based, plate reader, cherry-pick samples, set 3, dose response (AID 651818); type: functional;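 also: compounds incubated with infected cells for about four days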
[19] = Luminescence Cell-Based Dose Confirmation HTS to Identify Inhibitors of Platelet Dense Granule Release. [Related pubchem assays: 1663 (Primary HTS), 1678 (Summary of Project)]; type: functional
[20] = molecular target: Luciferin 4-monooxygenase (Photinus pyralis, UniProt P08659); experiment: inhibition of purified Photinus pyralis luciferase – biochemical, luminescence, dose response (AID 1891)
Chain of Luciferin 4-monooxygenase (P08659 whole entry): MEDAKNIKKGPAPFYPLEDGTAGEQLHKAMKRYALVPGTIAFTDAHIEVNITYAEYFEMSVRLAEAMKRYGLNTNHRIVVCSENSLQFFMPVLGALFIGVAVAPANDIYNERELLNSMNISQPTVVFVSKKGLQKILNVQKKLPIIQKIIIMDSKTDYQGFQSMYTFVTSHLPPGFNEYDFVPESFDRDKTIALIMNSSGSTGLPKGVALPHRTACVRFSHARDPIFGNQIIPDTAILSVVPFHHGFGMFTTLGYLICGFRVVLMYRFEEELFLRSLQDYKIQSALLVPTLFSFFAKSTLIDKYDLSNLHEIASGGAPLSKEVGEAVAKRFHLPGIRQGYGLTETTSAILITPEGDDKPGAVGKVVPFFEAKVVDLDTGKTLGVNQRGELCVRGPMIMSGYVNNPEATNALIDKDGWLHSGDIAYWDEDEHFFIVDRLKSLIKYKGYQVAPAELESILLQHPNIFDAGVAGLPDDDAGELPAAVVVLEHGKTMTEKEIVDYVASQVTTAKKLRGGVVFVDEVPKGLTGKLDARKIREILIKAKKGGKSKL

T1 sequence (Q79MP6 whole entry): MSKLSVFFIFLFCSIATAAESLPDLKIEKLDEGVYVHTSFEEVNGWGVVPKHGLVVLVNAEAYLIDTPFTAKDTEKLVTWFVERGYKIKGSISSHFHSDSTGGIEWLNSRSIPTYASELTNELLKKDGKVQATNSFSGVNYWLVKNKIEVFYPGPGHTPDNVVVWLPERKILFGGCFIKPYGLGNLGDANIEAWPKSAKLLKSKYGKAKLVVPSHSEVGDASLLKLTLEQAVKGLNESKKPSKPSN

## O=C(O)C1Sc2[nH]c(=O)sc2C2c3cc(Cl)ccc3OC(=O)C12 (centres undefined)
[1]
  IC50: > 59.6 µM (inactive)
[2]
  IC50: > 59.6 µM (inactive)
[3]
  IC50: > 59.6 µM (inactive)

## O=C(CSc1nnc(NC(=O)c2cccc(F)c2)s1)NCc1ccco1
[1]
  IC50: > 59.6 µM (inactive)
[2]
  IC50: > 59.6 µM (inactive)
[3]
  IC50: > 59.6 µM (inactive)

## CCCCCCC(=O)Nc1nc(C)c(-c2csc(Nc3cccc(OC)c3)n2)s1
[4]
  CC50: 18.4 µM (active)
[5]
  IC50: 12.9 µM (active)
[6]
  IC50: > 66.6 µM (inactive)

## CCc1cc(=O)oc2c(C)c(OCC(=O)N3CCC[C@@H]3C(=O)O)ccc12
[1]
  IC50: > 59.6 µM (inactive)
[2]
  IC50: > 59.6 µM (inactive)
[3]
  IC50: > 59.6 µM (inactive)
[7]
  IC50: 1.65 µM (active)

## CCOc1ccc(NC(S)=Nc2ccc(OC(F)(F)F)cc2)cc1
[8]
  EC50: > 195 µM (not active)
[9]
  IC50: > 80 µM (inactive)

## Clc1ccc2[nH]c(C3CCN(Cc4nnnn4C4CCCCC4)CC3)nc2c1
[10]
  IC50: 14.5 µM (inactive)

## Clc1ccc2nc(C3CCN(Cc4nnnn4C4CCCCC4)CC3)[nH]c2c1
[11]
  IC50: 7.33 µM (active)
[12]
  IC50: 2.91 µM (active)

## O=C1ON=C(c2ccccc2)/C1=C/c1ccc(O)c(O)c1
[13]
  IC50: 4.37 µM (active)
[14]
  IC50: 5.22 µM (active)
[15]
  IC50: 60 µM (active)
[16]
  CC50: 73.7 µM (active)

## CCOc1cc(/C=C2\C(=O)ON=C2c2ccccc2)cc(Br)c1O
[17]
  CC50: 17.8 µM (active)
[15]
  IC50: 61.2 µM (active)
[16]
  CC50: 100 µM (active)

## COc1ccc(C(=O)Nc2ccc(C(=O)Nc3nccs3)cc2)cc1[N+](=O)[O-]
[5]
  IC50: 9.87 µM (active)
[6]
  IC50: > 66.6 µM (inactive)

## O=C(c1cc2cc(Cl)ccc2[nH]1)N1CCN(c2ccc(F)cc2)CC1
[9]
  IC50: > 80 µM (inactive)

## COc1ccc(N2CCN(C(=O)c3cc(=O)c4cc(Cl)ccc4o3)CC2)cc1
[9]
  IC50: > 80 µM (inactive)

## C[C@H](O)[C@@H]1C(=O)N2CCc3c([nH]c4ccccc34)[C@@H]2C[C@@H]1N(C)Cc1ccc(Cl)cc1
[11]
  IC50: 1.49 µM (active)
[12]
  IC50: 0.974 µM (active)
[10]
  IC50: 57.9 µM (inactive)

## C[C@H]1CN([C@@H](C)CO)C(=O)c2cccc(NC(=O)c3ccncc3)c2O[C@@H]1CN(C)CC1CCCCC1
[18]
  AC50: 0.365 µM (active)

## C[C@H](CO)N1C[C@H](C)[C@@H](CN(C)CC2CC2)Oc2c(NC(=O)Nc3ccc4c(c3)OCO4)cccc2C1=O
[18]
  AC50: 20 µM (inactive)

## Cc1ccc(S(=O)(=O)N(C)C[C@H]2Oc3c(NC(=O)c4ccc(-c5nccs5)cc4)cccc3C(=O)N([C@H](C)CO)C[C@@H]2C)cc1
[18]
  AC50: 8.72 µM (active)

## O=C(Nc1ccccc1C(=O)N/N=C/c1ccc(O)cc1)c1ccccc1
[19]
  EC50: 3.65 µM (active)
[20]
  EC50: 0.184 µM (active)
[15]
  IC50: 220 µM (active)
[16]
  CC50: 39.5 µM (active)
